SMILES strings stand for the structures.

The subject of test [1] is SARS-CoV. The test can be described thus: Antiviral activity against SARS coronavirus infected in african green monkey Vero E6 cells assessed as cell viability after 48 hrs by Cell Titer-Glo luminescent assay. The test is classed as functional, organism-based. To be noted: Severe acute respiratory syndrome-related coronavirus.
For test [2], the target named is Ubiquitin carboxyl-terminal hydrolase 7 (Homo sapiens, UniProt Q93009). The test can be described thus: Inhibition of human USP7 using Ub-rhodamine 110 as substrate at 31 uM.
Test [3] has as its target Ubiquitin carboxyl-terminal hydrolase 20 (Homo sapiens, UniProt Q9Y2K6). The test can be described thus: Inhibition of human USP20 using Ub-rhodamine 110 as substrate at 31 uM.
In test [4] the target is T1, Cathepsin K (Homo sapiens) (UniProt P43235).
T1 sequence (whole entry): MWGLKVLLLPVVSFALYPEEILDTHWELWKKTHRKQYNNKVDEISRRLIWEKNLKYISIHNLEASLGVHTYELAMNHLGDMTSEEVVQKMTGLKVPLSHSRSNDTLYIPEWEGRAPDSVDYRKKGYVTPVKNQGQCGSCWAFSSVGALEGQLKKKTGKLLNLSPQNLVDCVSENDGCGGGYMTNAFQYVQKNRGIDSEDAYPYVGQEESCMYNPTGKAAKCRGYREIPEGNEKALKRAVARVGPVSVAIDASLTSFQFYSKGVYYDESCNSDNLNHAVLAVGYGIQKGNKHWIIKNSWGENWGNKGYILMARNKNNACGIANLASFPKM
The test can be described thus: Inhibition of human cathepsin K using fluorogenic peptide as substrate at 31 uM.

The target in test [5] is T2, Sentrin-specific protease 8 (Homo sapiens, UniProt Q96LD8).
T2 sequence (Q96LD8 whole entry): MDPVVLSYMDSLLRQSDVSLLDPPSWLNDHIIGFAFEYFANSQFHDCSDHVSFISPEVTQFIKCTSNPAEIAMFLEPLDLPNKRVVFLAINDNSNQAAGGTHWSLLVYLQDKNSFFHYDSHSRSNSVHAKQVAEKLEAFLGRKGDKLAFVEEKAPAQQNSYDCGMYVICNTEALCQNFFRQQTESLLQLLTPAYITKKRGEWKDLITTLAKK
In words: Inhibition of human DEN1 using Nedd8-EKL as substrate.

Chain of Ubiquitin carboxyl-terminal hydrolase 7 (Q93009 whole entry, looked up): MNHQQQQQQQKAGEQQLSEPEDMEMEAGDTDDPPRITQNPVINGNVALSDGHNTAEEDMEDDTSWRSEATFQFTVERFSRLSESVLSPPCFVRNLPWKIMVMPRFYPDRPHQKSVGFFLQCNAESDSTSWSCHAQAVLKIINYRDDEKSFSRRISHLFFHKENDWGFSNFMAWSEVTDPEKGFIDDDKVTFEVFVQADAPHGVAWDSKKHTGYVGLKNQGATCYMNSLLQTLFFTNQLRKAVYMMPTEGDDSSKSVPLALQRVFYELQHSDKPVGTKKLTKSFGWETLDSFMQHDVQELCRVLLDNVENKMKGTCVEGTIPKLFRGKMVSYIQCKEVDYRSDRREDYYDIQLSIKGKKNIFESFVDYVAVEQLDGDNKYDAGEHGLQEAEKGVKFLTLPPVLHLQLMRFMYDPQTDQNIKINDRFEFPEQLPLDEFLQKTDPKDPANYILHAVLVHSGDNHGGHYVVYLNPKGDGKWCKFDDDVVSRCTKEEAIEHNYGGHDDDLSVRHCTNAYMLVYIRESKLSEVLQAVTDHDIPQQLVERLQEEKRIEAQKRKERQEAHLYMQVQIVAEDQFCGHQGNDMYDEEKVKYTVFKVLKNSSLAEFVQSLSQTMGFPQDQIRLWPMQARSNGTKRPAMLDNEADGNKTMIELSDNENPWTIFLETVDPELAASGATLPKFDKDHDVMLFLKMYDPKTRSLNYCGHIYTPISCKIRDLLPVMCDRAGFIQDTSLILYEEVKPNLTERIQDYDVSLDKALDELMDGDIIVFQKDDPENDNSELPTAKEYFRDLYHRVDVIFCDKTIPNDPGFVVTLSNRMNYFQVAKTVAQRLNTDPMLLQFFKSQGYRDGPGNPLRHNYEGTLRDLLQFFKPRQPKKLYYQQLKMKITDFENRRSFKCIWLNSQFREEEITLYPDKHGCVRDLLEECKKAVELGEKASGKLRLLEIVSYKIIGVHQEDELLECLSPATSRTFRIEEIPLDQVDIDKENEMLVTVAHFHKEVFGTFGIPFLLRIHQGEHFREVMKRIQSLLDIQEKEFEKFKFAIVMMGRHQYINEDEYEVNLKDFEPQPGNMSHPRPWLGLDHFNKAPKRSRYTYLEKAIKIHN
Chain of Ubiquitin carboxyl-terminal hydrolase 20 (Q9Y2K6 whole entry): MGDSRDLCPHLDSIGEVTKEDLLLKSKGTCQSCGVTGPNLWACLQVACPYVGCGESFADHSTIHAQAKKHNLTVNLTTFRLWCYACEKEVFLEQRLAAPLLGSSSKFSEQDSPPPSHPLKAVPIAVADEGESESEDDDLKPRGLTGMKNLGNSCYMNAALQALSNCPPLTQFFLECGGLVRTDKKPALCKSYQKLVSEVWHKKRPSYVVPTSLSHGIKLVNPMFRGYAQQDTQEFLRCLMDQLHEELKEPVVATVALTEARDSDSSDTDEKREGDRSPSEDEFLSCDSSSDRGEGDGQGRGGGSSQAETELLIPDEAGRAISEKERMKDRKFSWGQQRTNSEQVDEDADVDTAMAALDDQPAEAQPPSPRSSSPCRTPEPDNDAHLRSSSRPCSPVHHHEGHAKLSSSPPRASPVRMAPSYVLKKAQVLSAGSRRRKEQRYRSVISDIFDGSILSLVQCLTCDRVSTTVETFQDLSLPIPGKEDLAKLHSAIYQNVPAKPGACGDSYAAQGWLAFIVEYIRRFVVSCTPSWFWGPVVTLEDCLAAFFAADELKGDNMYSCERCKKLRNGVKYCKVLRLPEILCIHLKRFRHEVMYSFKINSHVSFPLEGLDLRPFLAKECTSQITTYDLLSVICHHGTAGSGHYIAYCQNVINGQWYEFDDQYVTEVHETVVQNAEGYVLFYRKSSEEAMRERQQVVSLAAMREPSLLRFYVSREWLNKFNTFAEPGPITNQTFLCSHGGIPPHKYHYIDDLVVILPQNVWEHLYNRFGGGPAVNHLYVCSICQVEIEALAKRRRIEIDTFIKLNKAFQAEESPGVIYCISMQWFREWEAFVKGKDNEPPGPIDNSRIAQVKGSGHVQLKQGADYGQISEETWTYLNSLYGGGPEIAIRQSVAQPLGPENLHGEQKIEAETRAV

In the case of `C[C@H](c1cccc2ccccc12)N1CCC(C(=O)NCc2cccc(F)c2)CC1`, the EC50 in test [1] was found to be 5.4 µM. The inhibition is under 10% in test [2], 10% in test [3] and under 10% in test [4]. In addition, the IC50 result in test [5] was “Not Active”.

Turning to `C[C@H](c1cccc2ccccc12)N1CCC(C(=O)NCc2ccc3c(c2)OCO3)CC1`, the EC50 in test [1] worked out at 12.8 µM. Further, the inhibition in test [2], in test [3] and in test [4] was under 10% throughout. For the same compound, in test [5], the IC50 result was “Not Active”.

For `CC(=O)Nc1cccc(CNC(=O)C2CCN([C@H](C)c3cccc4ccccc34)CC2)c1`, the EC50 in test [1] is 8.3 µM. Further, the inhibition in test [2] was 10%; in test [3], 10%; in test [4], under 10%. Besides, in test [5], the IC50 entry was “Not Active”.

Consider `C[C@H](c1cccc2ccccc12)N1CCC(C(=O)NCc2ccc(F)cc2)CC1`, for which the EC50 in test [1] was found to be 11.6 µM. The inhibition in test [2] was under 10%; in test [3], 10%; in test [4] it was under 10%. For the same compound, the IC50 result in test [5] is recorded as “Not Active”.
